Results reported in US5567724A, “Alkaline and acid phosphatase inhibitors in treatment of neurological disorders” (Cortex Pharmaceuticals, Inc., priority 1994, dated 1996).
Counter-ions that a name gives are not always drawn. Like-named read-outs stand apart in the source and are kept apart here.

How the values were obtained:
[1] = system: Dorsal root ganglion cells; test: Vinblastine-induced toxicity in dorsal root ganglion cells, live/dead staining; format: cell-based; conditions: Na,K-tartrate 500 μM; NGF 50 ng/ml; vinblastine 500 nM; 24 hours
Experimental: Dorsal root ganglion cells were treated with Nerve Growth Factor (NGF) (50 ng/ml), vinblastine (500 nM) and Na,K-tartrate (500 μM) for 24 hours. Following the treatment, the dorsal root ganglion cells were stained with ethidium bromide and fluorescein diacetate to stain dead and live cells, respectively.
FIG. 5 illustrates the results of the study of Example 16. Percentage cell viability is determined from the ratio of live cells to total cell number. Each bar in […] represents the mean of 3 wells ± the standard deviation.

HT4 neurotumor cells = test: β-amyloid peptide toxicity in HT4 neurotumor cells, LDH release; format: cell-based, rat; conditions: 100 μM inhibitor; 50 μM β-amyloid peptide 25-35 and 250 μM quisqualate; 24 hours after treatment
Experimental: HT4 neurotumor cells were treated with 50 μM β-amyloid peptide 25-35 and 250 μM quisqualate. The cells were also treated with 100 μM of the following alkaline phosphatase inhibitors: 1,10 phenanthroline, phenylalanine, IBMX, bromotetramisole, purine, and theophylline. The death of the neurons was determined by measuring LDH activity in the media 24 hours after treatment. The release of LDH from the cells into the surrounding media indicates cell death.
FIG. 1 illustrates the results of the study of Example 1. […] Cells subjected to no treatment had only a low level of LDH activity.

[2] = system: rat embryonic hippocampal neurons; conditions: 50 μM β-amyloid 25-35
Experimental: To further determine the effect of alkaline phosphatase inhibitors on βamyloid peptide toxicity, rat embryonic hippocampal neurons in culture were exposed to 50 μM β-amyloid 25-35 in the presence of levamisole concentrations of 250 μM and 500 μM.

[3] = system: Porcine kidney alkaline phosphatase; test: Alkaline phosphatase assay with pNPP substrate, porcine kidney enzyme; format: biochemical; conditions: pNPP 5 mM, pH 5.5 lysis buffer
Experimental: (§1) Porcine kidney (0.01 U) and calf intestinal (0.002 U) alkaline phosphatases were assayed in the presence of levamisole (200 μM) or vanadate salt (5-500 μM) using pNPP (5 mM) as substrate. The assay was carried out in pH 5.5 lysis buffer. Each bar in FIG. 4 represents the mean of quadruplicates ± the standard deviation. The results of the experiment of Example 4 are illustrated in FIG. 4. […] The effect of treatment on humans with AD using arylimidothiazole derivatives having alkaline phosphatase inhibitory activity is described below in Examples 5-9.

[4] = system: calf intestinal alkaline phosphatase; test: Alkaline phosphatase assay with pNPP substrate, calf intestinal enzyme; format: biochemical; conditions: pNPP 5 mM, pH 5.5 lysis buffer
Experimental: as §1

[5] = Experimental: Human subjects diagnosed as suffering from AD are administered 50 mg of an arylimidothiazole derivative, such as levamisole, orally every eight hours for three days. The treatment is repeated every 14 days for a period of 6 months. […] A human patient diagnosed as suffering from Alzheimer's Disease is administered about 50 mg levamisole orally every eight hours for three days. The treatment is repeated every 14 days for a period of 6 months. […] Human subjects diagnosed as suffering from AD are administered 0.05 mg/kg of an arylimidothiazole derivative, such as levamisole, orally every day for a period of six months. […] A human patient diagnosed as suffering from Alzheimer's Disease is identified as having deteriorating symptoms of the disease. The patient is administered about 10 mg levamisole orally once per day for a period of six months.
Hippocampal neurons = test: Okadaic acid with β-amyloid on hippocampal neurons, LDH efflux; format: cell-based; conditions: 50 nM okadaic acid with 50 μM β-amyloid (β25-35), 24 hours, DME medium, 37° C.
Experimental: Hippocampal neurons were treated with 50 μM β-amyloid (β25-35)and 50 nM okadaic acid for 24 hours in Dulbeccois Modified Eagle's (DME) medium at 37° C. Following the 24-hour treatment period, an aliquot of media was removed for determination of LDH efflux from the neurons, which is an indicator of cell death. Each bar in FIG. 3, except the bar representing okadaic acid alone, represents the mean of 4 wells ± the standard deviation. The bar representing okadaic acid alone represents the mean of 2 wells ± the standard deviation.

O=C(O)C(O)C(O)C(=O)O (single isomer, unassigned) [Na,K-tartrate]
percentage cell viability in the presence of vinblastine [1]: significantly increased

CC(C)Cn1c(=O)n(C)c(=O)c2[nH]cnc21 [IBMX]
LDH activity in the media (cell death) (HT4 neurotumor cells): most effective compound tested

c1ccc([C@H]2CN3CCSC3=N2)cc1 [levamisole, (-)-(S)-2,3,5,6-tetrahydro-6-phenylimidoazide [2,1-b]thiazole monohydrochloride]
death of the neurons, as indicated by the release of LDH ([2]; levamisole 250 μM): reduced | LDH activity ([2]; levamisole 500 μM): reduced | Inhibition of porcine kidney alkaline phosphatase activity ([3]; levamisole 200 μM): unexpectedly high | Inhibition of calf intestinal alkaline phosphatase ([4]; levamisole 200 μM): little effect | symptoms of AD ([5]; 50 mg orally every eight hours for three days, repeated every 14 days for 6 months): lessened | symptoms of AD ([5]; about 10 mg orally once per day for six months): decrease

C=C1[C@@H](O)[C@@H]2O[C@]3(CC[C@H](/C=C/[C@@H](C)[C@@H]4CC(C)=C[C@@]5(O[C@H](C[C@@](C)(O)C(=O)O)CC[C@H]5O)O4)O3)CC[C@H]2O[C@@H]1[C@@H](O)C[C@H](C)[C@H]1O[C@@]2(CCCCO2)CC[C@H]1C [okadaic acid]
hippocampal neuronal injury (LDH efflux) (Hippocampal neurons): causes hippocampal neuronal injury

[O]=[V]([O-])([O-])[O-] [vanadate]
Inhibition of porcine kidney alkaline phosphatase activity ([3]; vanadate salt 5-500 μM): appear to inhibit | Inhibition of calf intestinal alkaline phosphatase ([4]; vanadate 100 μM): significantly inhibited
